From patent publication US8440633B2, “Anthelmintic combination” (AH USA 42 LLC, priority 2007, dated 2013)

Legend:
Assay type in all cases: in vivo
[1] = test system: Teladorsagia spp (total); assay: Total worm count, resistant strains in sheep (Example 3); conditions: for % efficacy (arithmetic mean): doses as the 6th table, Day 15, NEG = negative efficacy
Procedure: (§1) Sheep were artificially infected with infective L3 larvae in a mixed culture containing Haemonchus contortus, Teladorsagia spp and Trichostrongylus spp, and efficacy was measured by total worm counts in the treatment group compared to the control group following administration of treatment. The animals were treated as outlined below with the commercially available reference products included to confirm the resistance profile of the above parasites.
(§2) All study animals were necropsied on Day 15 after treatment. Abomasa and small intestines were collected for worm recovery and total worm count estimations.

[2] = test system: Trich. colubriformis; assay: as above; conditions: for % efficacy (arithmetic mean): doses as the 6th table, Day 15
Procedure: as §1, §2

[3] = test system: Haemonchus contortus; assay: as above; conditions: for % efficacy (arithmetic mean): doses as the 6th table, Day 15
Procedure: as §1, §2

[4] = test system: Teladorsagia trifurcata; assay: Total worm count, resistant strains in sheep (Example 2); conditions: for % efficacy (arithmetic mean): doses as the 4th table, Day 15, NEG = negative efficacy, mean count higher than control
Procedure: (§3) Sheep were artificially infected with L3 larvae of Teladorsagia (Ostertagia) circumcincta and Trichostrongylus colubriformis and efficacy was measured by total worm counts in the treatment group compared to the control group following administration of treatment.
as §2

[5] = test system: Teladorsagia circumcincta; assay: as above; conditions: for % efficacy (arithmetic mean): doses as the 4th table, Day 15, NEG = negative efficacy, mean count higher than control
Procedure: as §3, §2

[6] = test system: Trichostrongylus colubriformis; assay: as above; conditions: for % efficacy (arithmetic mean): doses as the 4th table, Day 15
Procedure: as §3, §2

[7] = Example 3, resistant Teladorsagia spp (total)
[8] = Example 3, resistant Trich. colubriformis
[9] = Example 3, resistant Haemonchus contortus
[10] = Example 2, Teladorsagia trifurcata
[11] = Example 2, resistant Teladorsagia circumcincta
[12] = Example 2, resistant Trichostrongylus colubriformis
[13] = Example 3, resistant Teladorsagia spp (total), per os once Day 0 (2-DOPH 2 + abamectin 0.2; albendazole 3.8; levamisole 8; ivermectin 0.2 mg/kg), necropsy Day 15
[14] = Example 3, resistant Trich. colubriformis, per os once Day 0 (2-DOPH 2 + abamectin 0.2; albendazole 3.8; levamisole 8; ivermectin 0.2 mg/kg), necropsy Day 15
[15] = Example 3, resistant Haemonchus contortus, per os once Day 0 (2-DOPH 2 + abamectin 0.2; albendazole 3.8; levamisole 8; ivermectin 0.2 mg/kg), necropsy Day 15
[16] = Example 2, Teladorsagia trifurcata, per os once Day 0 (2-DOPH 2 + abamectin 0.2; albendazole 3.8; levamisole 8; ivermectin 0.2 mg/kg), necropsy Day 15
[17] = Example 2, resistant Teladorsagia circumcincta, per os once Day 0 (2-DOPH 2 + abamectin 0.2; albendazole 3.8; levamisole 8; ivermectin 0.2 mg/kg), necropsy Day 15
[18] = Example 2, resistant Trichostrongylus colubriformis, per os once Day 0 (2-DOPH 2 + abamectin 0.2; albendazole 3.8; levamisole 8; ivermectin 0.2 mg/kg), necropsy Day 15

CCCSc1ccc2nc(NC(=O)OC)[nH]c2c1 [Albendazole]
% efficacy (arithmetic mean) [1, 7]: 58.16%
Arithmetic Mean (total worm count) ([1]; in vivo): 590.0
Prevalence (total worm count) ([1]; in vivo): 10/10
Range (total worm count) ([1]; in vivo): 160-1200
% efficacy (arithmetic mean) [2, 8]: 25.00%
Arithmetic Mean (total worm count) ([2]; in vivo): 3828.0
Prevalence (total worm count) ([2]; in vivo): 10/10
Range (total worm count) ([2]; in vivo): 2600-5160
% efficacy (arithmetic mean) [3, 9]: 80.57%
Arithmetic Mean (total worm count) ([3]; in vivo): 164.0
Prevalence (total worm count) ([3]; in vivo): 8/10
Range (total worm count) ([3]; in vivo): 0-320
% efficacy (arithmetic mean) [4, 10]: NEG^
Arithmetic Mean (total worm count) ([4]; in vivo): 281.6
Prevalence (total worm count) ([4]; in vivo): 7/10
Range (total worm count) ([4]; in vivo): 0-712
% efficacy (arithmetic mean) [5, 11]: NEG^
Arithmetic Mean (total worm count) ([5]; in vivo): 2184.4
Prevalence (total worm count) ([5]; in vivo): 10/10
Range (total worm count) ([5]; in vivo): 80-3708
% efficacy (arithmetic mean) [6, 12]: 56.44%
Arithmetic Mean (total worm count) ([6]; in vivo): 1812.0
Prevalence (total worm count) ([6]; in vivo): 10/10
Range (total worm count) ([6]; in vivo): 1320-2660

Ivermectin
% efficacy (arithmetic mean) [1, 7]: NEG
Arithmetic Mean (total worm count) ([1]; in vivo): 1680.0
Prevalence (total worm count) ([1]; in vivo): 10/10
Range (total worm count) ([1]; in vivo): 280-3800
% efficacy (arithmetic mean) [2, 8]: 11.63%
Arithmetic Mean (total worm count) ([2]; in vivo): 4510.0
Prevalence (total worm count) ([2]; in vivo): 10/10
Range (total worm count) ([2]; in vivo): 3140-5920
% efficacy (arithmetic mean) [3, 9]: 47.63%
Arithmetic Mean (total worm count) ([3]; in vivo): 442.0
Prevalence (total worm count) ([3]; in vivo): 8/10
Range (total worm count) ([3]; in vivo): 0-940
% efficacy (arithmetic mean) [4, 10]: 15.49%
Arithmetic Mean (total worm count) ([4]; in vivo): 194.8
Prevalence (total worm count) ([4]; in vivo): 7/10
Range (total worm count) ([4]; in vivo): 0-459
% efficacy (arithmetic mean) [5, 11]: NEG^
% efficacy (arithmetic mean) ([5]; Example 2, resistant Teladorsagia circumcincta, listed as ivermectin): zero
Arithmetic Mean (total worm count) ([5]; in vivo): 2093.2
Prevalence (total worm count) ([5]; in vivo): 10/10
Range (total worm count) ([5]; in vivo): 680-3600
% efficacy (arithmetic mean) [6, 12]: 55.29%
Arithmetic Mean (total worm count) ([6]; in vivo): 1860.0
Prevalence (total worm count) ([6]; in vivo): 10/10
Range (total worm count) ([6]; in vivo): 400-4060

c1ccc([C@H]2CN3CCSC3=N2)cc1 [Levamisole]
% efficacy (arithmetic mean) [1, 7]: 96.31%
Arithmetic Mean (total worm count) [1, 13]: 52.0
Prevalence (total worm count) [1, 13]: 8/10
Range (total worm count) [1, 13]: 0-160
% efficacy (arithmetic mean) [2, 8]: 15.34%
Arithmetic Mean (total worm count) [2, 14]: 4320.7
Prevalence (total worm count) [2, 14]: 10/10
Range (total worm count) [2, 14]: 2120-5800
% efficacy (arithmetic mean) [3, 9]: 99.76%
Arithmetic Mean (total worm count) [3, 15]: 2.0
Prevalence (total worm count) [3, 15]: 1/10
Range (total worm count) [3, 15]: 0-20
% efficacy (arithmetic mean) [4, 10]: 84.08%
Arithmetic Mean (total worm count) [4, 16]: 36.7
Prevalence (total worm count) [4, 16]: 4/9
Range (total worm count) [4, 16]: 0-180
% efficacy (arithmetic mean) [5, 11]: 82.67%
Arithmetic Mean (total worm count) [5, 17]: 292.8
Prevalence (total worm count) [5, 17]: 7/9
Range (total worm count) [5, 17]: 0-1020
% efficacy (arithmetic mean) [6, 12]: 84.31%
Arithmetic Mean (total worm count) [6, 18]: 652.6
Prevalence (total worm count) [6, 18]: 9/9
Range (total worm count) [6, 18]: 300-1500
